Tested on: established subcutaneous CT26 murine colon carcinoma
Assay: Anti-tumor activity of components of the transdermal formulation, intratumoral, tumor volume (Example 3)
Type: in vivo, female Balb/c mice
Parameters: TES Group Median / DT Group Median / TGD: unit not given here
Conditions: 50 μL intratumorally daily Day 11-17; for TGD: tumor growth delay versus Vehicle (0.0)
Procedure: A study is conducted to evaluate the anti-tumor activity of the components of the transdermal formulation intratumorally against established subcutaneous CT26 murine colon carcinoma in female Balb/c mice.
Vehicle control is saline solution. 3-surfactant mixture is a mixture of Nonaethylene glycol monododecyl ether, 1-Methyl-2-pyrrolidinone, and Linoleic Acid.
Tumor cells are implanted subcutaneously (Day 0). Once enrollment criteria are achieved, animals are distributed into treatment groups such that the mean tumor burden in each group is within 10% of the overall mean. Mice are dosed individually by body weight (50 μL fixed/injection intratumorally) on the day of treatment as described above. Animals are dose daily for 7 days beginning on Day 11 and ending on Day 17. Animals are held for tumor growth delay endpoint/tumor growth inhibition endpoint and complete regression/partial regression/tumor free survivor determination.

[1] = 2nd time-point column (day not given)
[2] = 4th time-point column (day not given)
[3] = 5th time-point column (day not given)
[4] = 6th time-point column (day not given)
[5] = 7th time-point column (day not given)

Row | SMILES | Mean Tumor Volume [1] [mm^3] | Median Tumor Volume [1] [mm^3] | Mean Tumor Volume (3rd time-point (day not given)) [mm^3] | Median Tumor Volume (3rd time-point (day not given)) [mm^3] | Mean Tumor Volume [2] [mm^3] | Median Tumor Volume [2] [mm^3] | Mean Tumor Volume [3] [mm^3] | Median Tumor Volume [3] [mm^3] | Mean Tumor Volume [4] [mm^3] | Median Tumor Volume [4] [mm^3] | Mean Tumor Volume [5] [mm^3] | Median Tumor Volume [5] [mm^3] | DT Group Median | TES Group Median | Mean Tumor Volume (day not given) [mm^3] | Median Tumor Volume (day not given) [mm^3] | TGD
1 | CCCCCCCCCCCCOCCOCCOCCOCCOCCOCCOCCOCCOCCO [Nonaethylene glycol monododecyl ether] | 236 | 246 | 416 | 368 | 761 | 819 | 996 | 988 | 1364 | 1311 | 2017 | 2009 | 3.7 | 17.7 | 126 | 125 | −0.4
2 | CCCCC/C=C\C/C=C\CCCCCCCC(=O)O [Linoleic Acid] | 283 | 270 | 481 | 411 | 777 | 700 | 1291 | 1030 | 1118 | 1152 | 2035 | 2250 | 3.5 | 18.7 | 132 | 138 | 0.6
3 | CN1CCCC1=O [1-Methyl-2-pyrrolidinone anhydrous, 1-Methyl-2-pyrrolidinone] | 278 | 295 | 428 | 426 | 688 | 624 | 1008 | 918 | 1216 | 1183 | 1910 | 1812 | 4.0 | 18.8 | 134 | 141 | 0.8

— patent US20210169903A1, “PHARMACEUTICAL COMPOSITIONS AND METHODS” (Tyme, Inc., priority 2019, published 2021)
